Earlier results, collected in US20090062391A1, “Use of a virucidal ointment in the nares for prevention of transmission and contraction of common colds” (priority 2007, published 2009).

Legend:
rhabdovirus = settings: Poli et al. [5]
adenovirus = settings: Poli et al. [5]; only naked virus tested
herpes simplex virus = settings: Poli et al. [5]
[1] = tested on: viruses which cause colds; settings: for effectiveness against viruses which cause colds: organic acid; for effectiveness at inactivating cold viruses: surfactant combined with organic acids
rhinovirus [2] = settings: hand lotions containing 2% glutaric acid, versus placebo; Hayden et al. [6]
rhinovirus [3] = settings: Hendley et al. [4]
[4] = frequent application
common colds = settings: in vivo

Molecule: O=C(O)CCC(=O)O [succinic acid]
- antiviral activity against rhabdovirus (rhabdovirus): effective
- antiviral activity against adenovirus (adenovirus): not effective
- antiviral activity against herpes simplex virus (herpes simplex virus): effective

Molecule: N[C@@H](CC(=O)O)C(=O)O [aspartic acid]
- effectiveness against viruses which cause colds [1]: effective

Molecule: CCCCC(=O)O [valeric acid]
- effectiveness against viruses which cause colds [1]: effective

Molecule: O=C(O)CCCC(=O)O [glutaric acid]
- inactivating certain serotypes of rhinovirus (rhinovirus [2]): more effective than placebo

Molecule: benzalkonium chloride
- antiviral activity (rhinovirus [3]): performed poorly

Molecule: CCCCCCCCOC(=O)CC(C(=O)OCCCCCCCC)S(=O)(=O)O.[Na] (centres unmarked) [sodium dioctyl sulfosuccinate]
- effectiveness at inactivating cold viruses [1]: demonstrated effectiveness

Molecule: CC(=O)C(=O)O [pyruvic acid]
- antiviral activity against rhabdovirus (rhabdovirus): effective
- antiviral activity against adenovirus (adenovirus): not effective
- antiviral activity against herpes simplex virus (herpes simplex virus): effective

Molecule: CC(O)C(=O)O (centres unmarked) [lactic acid]
- effectiveness against viruses which cause colds [1]: effective

Molecule: II [iodine]
- irritation of the skin [4]: too irritating to the skin

Molecule: CCCCCCCCCCCCOS(=O)(=O)[O-].[Na+] [sodium dodecyl sulfate]
- effectiveness at inactivating cold viruses [1]: demonstrated effectiveness

Molecule: O=C(O)CO [glycolic acid]
- effectiveness against viruses which cause colds [1]: effective

Molecule: O=C(O)CC(O)C(=O)O (centres unmarked) [malic acid]
- antiviral activity against rhabdovirus (rhabdovirus): effective
- antiviral activity against adenovirus (adenovirus): not effective
- antiviral activity against herpes simplex virus (herpes simplex virus): effective
- effectiveness against viruses which cause colds [1]: effective

Molecule: CCO [ethyl alcohol]
- antiviral activity (rhinovirus [3]): performed poorly

Molecule: CCCCCCCCC(=O)O [pelargonic acid]
- effectiveness against viruses which cause colds [1]: effective

Molecule: [Zn] [zinc]
- duration of common colds (common colds): shorten the duration

Molecule: O=C(O)CC(O)(CC(=O)O)C(=O)O [citric acid]
- antiviral activity against rhabdovirus (rhabdovirus): effective
- antiviral activity against adenovirus (adenovirus): not effective
- antiviral activity against herpes simplex virus (herpes simplex virus): effective
- effectiveness against viruses which cause colds [1]: effective
